Data set [1] deals with Herpes Simplex Virus (HSV 1). In words: HSV 1 plaque reduction assay in monolayers of Vero cells. Type of data set: cell-based. To be noted: HSV 1, Vero cells, 50% inhibitory concentration. How it is done: Herpes Simplex Virus (HSV 1) was assayed in monolayers of Vero cells in multiwell trays. Activity of compounds was determined in the plaque reduction assay, in which a cell monolayer was infected with a suspension of HSV 1, and then overlaid with nutrient agarose in the form of a gel to ensure that there was no spread of virus throughout the culture. A range of concentrations of compound of known molarity was incorporated in the nutrient agarose overlay. Plaque numbers at each concentration were expressed as percentages of the control and a dose-response curve was drawn. From this curve the 50% inhibitory concentration (IC50) was estimated.

Data set [2] deals with herpes viruses. To be noted: particularly against herpes viruses, in words; cited from earlier work.
For data set [3] the following is noted: in words; cited from earlier work.

Where a name gives a salt, the structure may show the parent alone.

The values that follow come from patent US5061708A, “Therapeutic guanine esters” (priority 1987, dated 1991).

A word on the IC50: it is the concentration that gives 50% inhibition. A high value points to lower potency. In the case of `Nc1nc2c(ncn2COCCO)c(=O)[nH]1` [Acyclovir, 9-(2-Hydroxyethoxymethyl)guanine], the half-maximal inhibitory concentration (IC50) in data set [1] lay in the range of 80 to 100 nM. In data set [2], the antiviral activity entry is “potent antiviral activity”. Further, the “absorption from the gastrointestinal tract after oral administration” value in data set [3] is “only poorly absorbed”.

In turn, `CC[C@H](C)[C@H](N)C(=O)OCCOCn1cnc2c(=O)[nH]c(N)nc21` [Example 1, 2-(2-Amino-1,6-dihydro-6-oxo-9H(purin-9-yl)methoxy)ethyl L-isoleucinate hydrochloride] had a 50% inhibitory concentration (IC50) in data set [1] of 3800 nM.
